Data taken from patent US7741064B2, “Materials and methods relating to G-protein coupled receptor oligomers” (The University Court of the University of Glasgow, priority 2003, dated 2010).
Positions count from the first letter of the chain named. Entries after “also recorded” stand apart in the source; their conditions may differ.

Tests used:
[1] = molecular target: histamine H1 receptor-G11α fusion co-expressed with isolated Leu151Asp α1b-adrenoceptor (UniProt P21278+P35367); conditions: in comparison to membranes expressing the same level of only the histamine H1 receptor-G11α fusion; 1 mM histamine (FIG. 12A)
[2] = molecular target: T1, Leu151Aspα1b-adrenoceptor-G11α co-expressed with histamine H1 receptor-Gly208Ala G11α (UniProt P18841+P35367, L151D); format: cell-based; conditions: EF88 cells; phenylephrine 10 μM, histamine 1 mM (FIG. 7B)
T1 construct: the full length c-myc-tagged α1b-adrenoceptor-G11α fusion protein; expressed in transfected cells; host or cells: EF88 mouse embryo fibroblasts (Gqα/G11α double knock-out)
T1 sequence (P21278 whole entry G208A, one chain of several, the tested form may be a part): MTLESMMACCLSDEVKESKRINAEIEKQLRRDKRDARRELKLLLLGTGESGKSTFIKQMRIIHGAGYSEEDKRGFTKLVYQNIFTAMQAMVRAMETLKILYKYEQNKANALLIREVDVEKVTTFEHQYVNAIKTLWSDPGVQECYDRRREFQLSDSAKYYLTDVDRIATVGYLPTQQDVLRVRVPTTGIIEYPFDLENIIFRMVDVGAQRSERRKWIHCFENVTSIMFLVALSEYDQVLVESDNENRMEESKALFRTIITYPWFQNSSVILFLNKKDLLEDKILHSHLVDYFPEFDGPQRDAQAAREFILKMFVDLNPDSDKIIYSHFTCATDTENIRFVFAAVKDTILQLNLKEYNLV
T1 sequence (P21278 whole entry, stated change not applied, one chain of several, the tested form may be a part): as the sequence (P21278 whole entry G208A, one chain of several, the tested form may be a part) above, with A208G counted along it
T1 sequence (P35367 whole entry, one chain of several, the tested form may be a part): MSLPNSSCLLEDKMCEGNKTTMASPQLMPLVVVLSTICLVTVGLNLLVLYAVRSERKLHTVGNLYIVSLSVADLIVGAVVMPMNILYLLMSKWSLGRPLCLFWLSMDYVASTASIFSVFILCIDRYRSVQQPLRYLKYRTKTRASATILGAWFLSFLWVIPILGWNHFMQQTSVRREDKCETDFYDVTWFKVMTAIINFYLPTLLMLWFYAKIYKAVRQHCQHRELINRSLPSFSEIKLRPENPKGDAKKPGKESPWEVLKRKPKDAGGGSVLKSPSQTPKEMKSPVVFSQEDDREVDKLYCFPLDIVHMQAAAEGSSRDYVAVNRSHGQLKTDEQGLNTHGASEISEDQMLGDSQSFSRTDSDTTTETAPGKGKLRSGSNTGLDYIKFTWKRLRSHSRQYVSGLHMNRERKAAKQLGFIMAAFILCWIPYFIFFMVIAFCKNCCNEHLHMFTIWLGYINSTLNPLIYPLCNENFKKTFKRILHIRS

[3] = molecular target: T2, Leu133Asp histamine H1 receptor-G11α co-expressed with α1b-adrenoceptor-Gly208Ala G11α (UniProt P18841+P35367, L133D); experiment: [Ca2+]i imaging in EF88 cells; format: cell-based; conditions: phenylephrine 10 μM, histamine 1 mM (FIG. 7A)
T2 construct: the full length c-myc-tagged α1b-adrenoceptor-G11α fusion protein; expressed in transfected cells; host or cells: EF88 mouse embryo fibroblasts (Gqα/G11α double knock-out)
T2 sequence (P35367 whole entry L133D, the tested form may be a part): as the sequence (P35367 whole entry, one chain of several, the tested form may be a part) above, with L133D counted along it
T2 sequence (P21278 whole entry partner, the tested form may be a part): as the sequence (P21278 whole entry G208A, one chain of several, the tested form may be a part) above, with A208G counted along it
T2 sequence (P18841 whole entry, the tested form may be a part): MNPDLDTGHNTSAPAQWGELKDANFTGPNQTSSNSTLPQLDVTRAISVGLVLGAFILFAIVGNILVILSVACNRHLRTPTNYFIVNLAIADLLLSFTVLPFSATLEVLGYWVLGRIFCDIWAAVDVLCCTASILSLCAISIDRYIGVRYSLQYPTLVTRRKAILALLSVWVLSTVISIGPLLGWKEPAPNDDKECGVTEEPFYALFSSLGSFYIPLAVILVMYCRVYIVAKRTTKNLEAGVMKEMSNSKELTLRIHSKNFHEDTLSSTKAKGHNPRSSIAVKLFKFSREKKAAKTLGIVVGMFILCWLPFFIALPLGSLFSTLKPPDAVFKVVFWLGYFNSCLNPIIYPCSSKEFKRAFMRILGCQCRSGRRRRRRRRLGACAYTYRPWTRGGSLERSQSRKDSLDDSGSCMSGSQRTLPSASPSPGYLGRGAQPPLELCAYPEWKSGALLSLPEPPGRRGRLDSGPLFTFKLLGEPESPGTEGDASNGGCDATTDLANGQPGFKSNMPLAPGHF
T2 sequence (P21278 whole entry G208A partner, the tested form may be a part): as the sequence (P21278 whole entry G208A, one chain of several, the tested form may be a part) above
Method: EF88 cells were grown in DMEM supplemented with 10% (v/v) heat inactivated foetal bovine serum and L-glutamine (1 mM) in a 95% air and 5% CO2 atmosphere at 37° C. A portion of the cells harvested during trypsinization were plated on to glass coverslips and after a 24 h growth period they were transfected using LipofectAMINE (Life Technologies Inc.) according to the manufacturers' instructions. After 3 h cells were washed twice with OPTIMEM 1 and then cultured in DMEM growth medium for a further 24 h. A total of 3 μg of pCDNA3 containing the relevant cDNA species were used to transfect each coverslip. Transfected EF88 cells were loaded with the Ca^2+-sensitive dye Fura-2 by incubation (15-20 min, 37° C.) under reduced light in DMEM growth medium containing the dye's membrane-permanent acetoxymethylester form (1.5 μM).

[4] = molecular target: histamine H1 receptor-G11α co-transfected with Leu151Asp α1b-adrenoceptor (UniProt P21278+P35367); conditions: EF88 cells; 1 mM histamine; versus histamine H1 receptor-G11α alone (FIG. 12B)
[5] = molecular target: Leu133Asp histamine H1 receptor-G11α fusion protein (Homo sapiens, UniProt P35367, L133D); conditions: HEK293 membranes; 1 mM histamine (FIG. 5(3))
Method: (§1) [^35S]GTPγS binding experiments were initiated by the addition of membranes containing defined amounts of the fusion constructs (see Results for details) to an assay buffer (20 mM HEPES (pH 7.4), 3 mM MgCl2, 100 mM NaCl, 1 μM guanosine 5′-diphosphate, 0.2 mM ascorbic acid, 50 nCi [^35S]GTPγS) containing the indicated concentrations of receptor ligands. Non-specific binding was determined in the same conditions but in the presence of 100 μM GTPγS. Reactions were incubated for 15 min at 30° C. and were terminated by the addition of 0.5 ml of ice cold buffer, containing 20 mM HEPES (pH 7.4), 3 mM MgCl2 and 100 mM NaCl.
(§2) Finally, the immunocomplexes were washed twice with solubilization buffer, and bound [^35S]GTPγS measured by liquid-scintillation spectrometry.

[6] = molecular target: wild type histamine H1 receptor-G11α fusion protein (Homo sapiens, UniProt P35367); conditions: HEK293 membranes; 1 mM histamine (FIG. 5(1))
Method: as §1, §2

[7] = molecular target: co-expressed histamine H1 receptor-Gly208AlaG11α + Leu133Asp histamine H1 receptor-G11α (Homo sapiens, UniProt P35367, L133D); conditions: HEK293 membranes; two mutants co-expressed; 1 mM histamine (FIG. 5(4))
Method: as §1, §2

[8] = molecular target: histamine H1 receptor-Gly208Ala G11α fusion protein (UniProt P21278+P35367, G208A); conditions: HEK293 membranes; 1 mM histamine (FIG. 5(2))
Sequence of histamine H1 receptor-Gly208Ala G11α fusion protein (P35367+P21278 fused P21278:G208A): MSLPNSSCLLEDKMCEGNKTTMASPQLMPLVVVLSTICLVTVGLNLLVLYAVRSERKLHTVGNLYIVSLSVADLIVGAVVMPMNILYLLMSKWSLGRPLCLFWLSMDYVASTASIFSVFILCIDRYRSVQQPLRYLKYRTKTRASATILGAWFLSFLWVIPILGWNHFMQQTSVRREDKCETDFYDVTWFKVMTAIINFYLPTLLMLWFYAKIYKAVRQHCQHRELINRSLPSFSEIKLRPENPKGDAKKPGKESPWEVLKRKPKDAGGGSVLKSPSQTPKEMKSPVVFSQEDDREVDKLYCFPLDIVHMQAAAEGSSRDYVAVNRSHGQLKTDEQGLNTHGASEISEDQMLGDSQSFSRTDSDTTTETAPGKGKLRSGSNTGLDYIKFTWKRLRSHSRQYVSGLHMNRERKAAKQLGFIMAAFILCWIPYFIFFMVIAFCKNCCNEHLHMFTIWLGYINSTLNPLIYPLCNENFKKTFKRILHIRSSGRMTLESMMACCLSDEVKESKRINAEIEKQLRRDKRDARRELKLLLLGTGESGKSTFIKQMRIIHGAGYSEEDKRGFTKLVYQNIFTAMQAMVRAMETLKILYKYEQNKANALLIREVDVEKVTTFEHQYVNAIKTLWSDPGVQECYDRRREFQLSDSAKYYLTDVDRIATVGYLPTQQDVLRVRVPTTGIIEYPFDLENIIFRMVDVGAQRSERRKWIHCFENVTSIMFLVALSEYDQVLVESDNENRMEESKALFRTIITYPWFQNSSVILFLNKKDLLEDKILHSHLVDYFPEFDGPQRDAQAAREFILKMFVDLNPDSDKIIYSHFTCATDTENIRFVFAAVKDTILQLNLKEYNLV
Method: as §1, §2

[9] = tested on: c-myc-Nt-TM1α1b-G11α; experiment: [35S]GTPγS binding recovered in anti-c-myc immunoprecipitates, HEK293 cells; format: biochemical; conditions: 10 μM phenylephrine (FIG. 13B)
Method: (§3) [^35S]GTPγS binding experiments were initiated by the addition of membranes containing defined amounts of the fusion constructs (see Results for details) to an assay buffer (20 mM HEPES (pH 7.4), 3 mM MgCl2, 100 mM NaCl, 1 μM guanosine 5′-diphosphate, 0.2 mM ascorbic acid, 50 nCi [^35S]GTPγS) containing the indicated concentrations of receptor ligands. Non-specific binding was determined in the same conditions but in the presence of 100 μM GTPγS. Reactions were incubated for 15 min at 30° C. and were terminated by the addition of 0.5 ml of ice cold buffer, containing 20 mM HEPES (pH 7.4), 3 mM MgCl2 and 100 mM NaCl. The samples were centrifuged at 16,000 g for 15 min at 4° C., and the resulting pellets were resuspended in solubilization buffer (100 mM Tris, 200 mM NaCl, 1 mM EDTA, 1.25% Nonidet P-40) plus 0.2% sodium dodecylsulfate. Samples were precleared with Pansorbin (Calbiochem), followed by immunoprecipitation with CQ antiserum (Mitchell et al., 1993).

[10] = molecular target: T3, Leu151Aspα1b-adrenoceptor-G11α fusion protein (Mesocricetus auratus, UniProt P18841, L151D); experiment: [35S]GTPγS binding, membranes of HEK293 cells; format: biochemical; conditions: 10 μM phenylephrine (FIG. 4A(3))
T3 construct: the full length c-myc-tagged α1b-adrenoceptor-G11α fusion protein; expressed in transfected cells; host or cells: HEK293 (membranes)
T3 sequence (P18841 1-515 L151D): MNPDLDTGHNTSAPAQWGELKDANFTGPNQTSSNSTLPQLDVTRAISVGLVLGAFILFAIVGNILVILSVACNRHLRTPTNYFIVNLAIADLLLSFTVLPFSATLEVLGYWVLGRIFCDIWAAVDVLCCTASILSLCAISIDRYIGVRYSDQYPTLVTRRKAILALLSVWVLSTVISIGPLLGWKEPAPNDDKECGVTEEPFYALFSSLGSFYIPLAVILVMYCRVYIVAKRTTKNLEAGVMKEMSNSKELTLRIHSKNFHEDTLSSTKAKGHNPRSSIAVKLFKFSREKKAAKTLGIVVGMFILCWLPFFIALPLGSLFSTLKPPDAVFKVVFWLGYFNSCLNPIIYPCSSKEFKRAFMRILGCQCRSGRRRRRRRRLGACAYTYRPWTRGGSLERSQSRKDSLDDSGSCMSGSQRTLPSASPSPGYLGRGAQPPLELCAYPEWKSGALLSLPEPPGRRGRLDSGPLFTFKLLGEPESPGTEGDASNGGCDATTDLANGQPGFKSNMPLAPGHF
Method: as §3

[11] = molecular target: T4, wild type α1b-adrenoceptor-G11α fusion protein (Mesocricetus auratus, UniProt P18841); experiment: [35S]GTPγS binding, membranes of HEK293 cells; format: biochemical; conditions: 10 μM phenylephrine (FIG. 4A)
T4 construct: the full length c-myc-tagged α1b-adrenoceptor-G11α fusion protein; expressed in transfected cells; host or cells: HEK293 (membranes)
T4 sequence (P18841 1-515): T3 sequence (P18841 1-515 L151D) with D151L
Method: as §3

[12] = molecular target: T5, co-expressed α1b-adrenoceptor-Gly208AlaG11α + Leu151Aspα1b-adrenoceptor-G11α (Mesocricetus auratus, UniProt P18841, L151D); experiment: [35S]GTPγS binding, membranes of HEK293 cells; format: biochemical; conditions: two non-functional mutants co-expressed, 10 μM phenylephrine (FIG. 4A(4))
T5 construct: the full length c-myc-tagged α1b-adrenoceptor-G11α fusion protein; expressed in transfected cells; host or cells: HEK293 (membranes)
Method: as §3

[13] = molecular target: T6, α1b-adrenoceptor-Gly208AlaG11α fusion protein (UniProt P18841+P21278, G208A); experiment: [35S]GTPγS binding, membranes of HEK293 cells; format: biochemical; conditions: 10 μM phenylephrine (FIG. 4A(2))
T6 construct: the full length c-myc-tagged α1b-adrenoceptor-G11α fusion protein; expressed in transfected cells; host or cells: HEK293 (membranes)
T6 sequence (P18841+P21278 fused P21278:G208A): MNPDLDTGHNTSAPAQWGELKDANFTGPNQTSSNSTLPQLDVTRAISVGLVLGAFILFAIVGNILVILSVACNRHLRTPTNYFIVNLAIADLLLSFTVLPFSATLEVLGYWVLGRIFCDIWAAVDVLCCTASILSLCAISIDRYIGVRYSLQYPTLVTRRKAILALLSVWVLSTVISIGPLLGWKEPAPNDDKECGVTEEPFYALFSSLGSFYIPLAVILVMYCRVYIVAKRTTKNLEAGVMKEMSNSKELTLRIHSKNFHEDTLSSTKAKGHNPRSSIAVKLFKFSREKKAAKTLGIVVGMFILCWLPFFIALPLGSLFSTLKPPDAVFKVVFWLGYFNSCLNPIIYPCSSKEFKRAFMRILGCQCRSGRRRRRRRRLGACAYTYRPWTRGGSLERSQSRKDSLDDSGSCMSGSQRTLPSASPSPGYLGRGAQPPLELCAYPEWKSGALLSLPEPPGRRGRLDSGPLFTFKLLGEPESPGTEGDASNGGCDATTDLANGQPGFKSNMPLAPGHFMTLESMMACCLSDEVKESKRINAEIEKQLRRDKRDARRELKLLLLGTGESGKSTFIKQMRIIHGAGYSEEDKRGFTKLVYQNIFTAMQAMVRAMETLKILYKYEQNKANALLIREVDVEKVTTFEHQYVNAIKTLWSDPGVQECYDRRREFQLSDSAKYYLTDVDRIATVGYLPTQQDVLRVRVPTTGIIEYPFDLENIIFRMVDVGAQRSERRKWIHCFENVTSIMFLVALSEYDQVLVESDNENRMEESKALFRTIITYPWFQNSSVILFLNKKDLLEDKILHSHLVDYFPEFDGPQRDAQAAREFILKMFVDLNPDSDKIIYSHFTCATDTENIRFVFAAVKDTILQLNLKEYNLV
Method: as §3

Structure (SMILES) | histamine stimulation of [35S]GTPγS binding [1] | elevation of intracellular [Ca2+] [2] | elevation of intracellular [Ca2+] [3] | histamine stimulation of intracellular [Ca2+] [4] | stimulation of [35S]GTPγS binding [5] | stimulation of [35S]GTPγS binding [6] | agonist activation of the G protein ([35S]GTPγS binding) [7] | stimulation of [35S]GTPγS binding [8] | stimulation of [35S]GTPγS binding in anti-c-myc immunoprecipitates ([9]; co-expressed with the isolated α1b-adrenoceptor) | [35S]GTPγS binding in response to agonist ([9]; construct expressed alone) | stimulation of [35S]GTPγS binding [10] | stimulation of the binding of [35S]GTPγS [11] | agonist-mediated binding of [35S]GTPγS [12] | stimulation of [35S]GTPγS binding [13]
NCCc1c[nH]cn1 [histamine] | significantly reduced | caused elevation of intracellular [Ca^2+]; also recorded: elevation of intracellular calcium | little or no change | reduced markedly | absent | large stimulation | reconstituted agonist activation | absent | – | – | – | – | – | –
CNC[C@H](O)c1cccc(O)c1 [phenylephrine] | – | did not; also recorded: little or no change | able to elevate intracellular [Ca^2+]; also recorded: elevation of intracellular calcium concentration | – | – | – | – | – | did not result in significant stimulation | did not bind | unable to stimulate binding | large stimulation | reconstituted phenylephrine-mediated binding | essentially eliminated
